Laboratory results published in US20110183889A1, “SALICYLANILIDE MODIFIED PEPTIDES FOR USE AS ORAL THERAPEUTICS” (The Regents of the University of California, priority 2007, published 2011).

Assays:
[1] = system: LDL-induced monocyte chemotactic activity in cultures of human aortic endothelial cells; experiment: HDL-inflammatory index: HDL from treated apoE null mice tested in human aortic endothelial cell cultures; type: in vivo; conditions: for HDL-inflammatory index, salicylanilide with D-4F or L-4F: FIG. 24, salicylanilide:peptide 10:1, peptide 5 μg by stomach tube
Procedure: 11-month-old female apoE null mice were fasted during the day. At night the mice were provided chow containing or not containing additions. […] The mice were only given one gram of chow per mouse (n=8 mice per group) so that they would consume all of the chow. In the morning after the chow was consumed the mice were bled and their plasma was sucrose cryopreserved and fractionated by FPLC and the HDL-containing fractions were tested for their ability to inhibit monocyte chemotactic activity induced by a standard control human LDL (A) in cultures of human aortic endothelial cells. The mouse HDL (C-J) was also compared to a standard human HDL (B) that was added at the same concentrations as the mouse HDL. The resulting monocyte chemotactic activity was normalized to the standard control LDL added alone (A). The results are plotted as the HDL-inflammatory index, which is the result of dividing the monocyte chemotactic activity measured for each condition by the monocyte chemotactic activity obtained by the standard control LDL added alone, which was normalized to 1.0 as described previously (Navab et al. (2004) J Lipid Res, 45: 993-1007).
A second experiment was performed as described for the first experiment with 8 mice in each group except that the additions to the chow were different. […] As in the first experiment the mice were only given one gram of chow per mouse so that they would consume all of the chow. In the morning this second group of mice were bled and their HDL tested in the human artery wall cell culture together with the HDL from the first experiment.
L-4F (free base) was diluted with water to give 10 μg per 100 μL of water. […] The mice were fasted and after 7 hours they were bled and their plasma was sucrose cryopreserved. The plasma was fractionated by FPLC and the HDL-containing fractions were tested for their ability to inhibit the induction of monocyte chemotactic activity by a standard control human LDL, which was added to cultures of human aortic endothelial cells. The standard control human LDL was also added by itself or with a standard control human HDL. The values obtained by the standard control human LDL alone were normalized to 1.0. The values obtained after the addition of the standard control HDL or the mouse HDL were compared to the values obtained by the standard control LDL alone to give the HDL Inflammatory Index.
Fasting was continued and the mice were bled 5 hours later and the HDL inflammatory index determined in cultures of human aortic endothelial cells as described in FIG. 8. Briefly, To determine the HDL-inflammatory index lipoproteins were added to human aortic endothelial cell cultures as described previously (Navab et al., (2005) Circulation Research 97: 524-532). A normal control human LDL was added to each well in triplicate at a final concentration of 100 μg/mL of LDL-cholesterol. A normal human HDL was added to three wells containing human LDL at a final concentration of 50 μg/mL HDL-cholesterol as a positive control. HDL from the mice at a final concentration of 50 μg/mL HDL-cholesterol was added in triplicate to other wells containing human LDL. After 8 hours of culture the supernatants were removed and monocyte chemotactic activity was determined as previously described (Navab et al. (2001) J. Lipid Res., 42: 1308-1317; Danciger et al. (2004) J. Immunol. Meth., 288: 123-124). The values obtained from wells containing the human LDL but no HDL were normalized to 1.0. The values obtained from wells containing the human LDL with either human or mouse HDL were divided by the values obtained from wells with human LDL without added HDL to give the HDL-inflammatory index as previously described (Ansell et al. (2003) Circulation 108: 2751-2756).

[2] = system: monocyte chemotactic activity in cultures of human aortic endothelial cells; experiment: LDL-inflammatory index: LDL from treated apoE null mice tested in human aortic endothelial cell cultures; type: in vivo; conditions: for LDL-inflammatory index, salicylanilide with D-4F or L-4F: FIG. 25, mice of FIG. 24
Text: […] to induce monocyte chemotactic activity in cultures of human aortic endothelial cells and compared to a standard control human LDL whose values were normalized to 1.0 for the LDL-inflammatory index.

[3] = solubilization of niclosamide in water by L-4F; type: physicochemical; conditions: FIG. 13; Niclosamide 10 mg per mL in water or water with 1.0 mg/mL L-4F, homogenized, 4° C. ten days
Procedure: The solutions were stored at 4° C. for ten days and photographed (see FIG. 13).

aortic sinus lesion area = experiment: lesion regression in old apoE null mice, six months in chow; type: in vivo; conditions: FIGS. 32-34; L-4F 200 μg and niclosamide 2 mg/mouse/day in chow, pravastatin 50 μg/mouse/day, 26 weeks
Text: Ninety-five female apoE null mice age 9.5 months from the UCLA breeding colony were identified. Twenty-three were sacrificed at time Zero (Group I) to establish lesion area at the start of the experiment. […] All groups received 50 micrograms/mouse/day of pravastatin in their drinking water. At the veterinarian's request because of fighting and/or ulcerative dermatitis mice were euthanized prior to the end of the experiment as follows: 6 mice from Group II; 5 mice from Group III; 4 mice from Group IV. After six months the remaining mice were sacrificed and aortic sinus lesion area was determined as described previously (Id.).
In still another experiments, nine and half months-old female apoE null mice were divided into four groups: Group I was sacrificed to establish base line lesion area (Time Zero). […] Group III received L-4F at 200 μg/mouse/day in rodent chow. […] Groups II-IV received pravastatin 50 μg/mouse/day in drinking water. After 26 weeks the mice were sacrificed and aortic sinus lesion area was determined.

[4] = cited from earlier work
HDL function = conditions: drinking water of apoE null mice for 24 hours; D-4F 1 μg/ml, statin 0.05 mg/ml; related application U.S. Ser. No. 10/423,830; cited from earlier work
[5] = mouse, in vivo, po
[6] = system: atherosclerosis in apoE Null mice; experiment: atherosclerosis lesions (aortic sinus, en face, macrophage area), 14 weeks in chow; type: in vivo; conditions: FIGS. 29-31, L-4F 25 and niclosamide 250 μg/mouse/day in chow, all groups pravastatin 50 μg/mouse/day
[7] = self-association of L-4F in aqueous environment (non-denaturing gel); type: physicochemical; conditions: FIG. 39 lane 2
Text: Lane 1 contains molecular weight markers (HMW).

[8] = system: LDL-induced monocyte chemotactic activity in cultures of human aortic endothelial cells; conditions: administered orally to mice; Navab et al. 2002; cited from earlier work
[9] = mouse, in vivo; cited from earlier work
[10] = molecular target: the molecule itself; experiment: non-denaturing gel (4-20%, coomassie blue), L-4F alone in lane 2; self-association of the peptide
[11] = FIG. 22, peptide 10 μg with or without niclosamide 10:1, ABCT pH 8.0, stomach tube, seven hours

For `O=C(Nc1ccc([N+](=O)[O-])cc1Cl)c1ccc(Cl)cc1O` [BP-1001], the “HDL-inflammatory index, salicylanilide with D-4F or L-4F” value ([1]; six hours) was “more potent than niclosamide” and the “LDL-inflammatory index, salicylanilide with D-4F or L-4F” value [2] was “more potent”.

In the case of `O=C(Nc1ccc([N+](=O)[O-])cc1Cl)c1ccc(O)c(Cl)c1` [BP-1012], the “HDL-inflammatory index, salicylanilide with D-4F or L-4F” value ([1]; six hours) is reported as “more potent than niclosamide” and the “LDL-inflammatory index, salicylanilide with D-4F or L-4F” value [2] is reported as “more potent”.

For `O=C(Nc1ccc([N+](=O)[O-])cc1Cl)c1cc(Cl)ccc1O` [Niclosamide, 5-chloro-N-(2-chloro-4-nitrophenyl)-2-hydroxybenzamide], the “enhancement of the ability of L-4F to render HDL anti-inflammatory” value ([1]; FIG. 16, niclosamide 250 μg/day in chow, L-4F 25 μg/day in drinking water or chow, three days) was “greatly enhanced”, the “enhancement of the ability of L-4F to decrease LDL-induced monocyte chemotactic activity” value ([2]; FIG. 17, niclosamide 250 μg/day in chow, L-4F 25 μg/day in drinking water or chow, three days) was “greatly enhanced” and the “solubility of niclosamide in aqueous solution” value [3] was “relatively insoluble”. For the same molecule, the “lesions in old apoE null mice versus Time Zero” value (aortic sinus lesion area) was “neither niclosamide nor L-4F without niclosamide significantly reduced lesions”, the water solubility ([4]; at 20° C., ethanolamine salt in distilled water) was 5 to 8 µg/mL and the solubility in acetone [4] was “soluble”. For the same molecule, the “solubility in ether, ethanol and chloroform” value [4] was “sparingly soluble” and the stability in tablets ([4]; moist environments) was “undergoes a biodegradation”.

For `CC(C)c1c(C(=O)Nc2ccccc2)c(-c2ccccc2)c(-c2ccc(F)cc2)n1CC[C@@H](O)C[C@@H](O)CC(=O)O` [atorvastatin, reference compound], the HDL function (HDL function) is listed as “did not improve HDL function”.

For Ac-DWFKAFYDKVAEKFKEAF-NH2 [D-4F], the HDL-inflammatory index [1, 11] is listed as “able to render apoE null mouse HDL anti-inflammatory to a degree comparable to normal human HDL”, the “detectability in the circulation” value [5] is listed as “essentially non-detectable” and the HDL function (HDL function) is listed as “did not significantly improve HDL function”.

With “Ac-DWFKAFYDKVAEKFKEAF-NH2 [L-4F, Ac-D-W-F-K-A-F-Y-D-K-V-A-E-K-F-K-E-A-F-NH2]” the HDL-inflammatory index ([1]; FIG. 8, female apoE null mice, additions to 1 g chow overnight: L-4F 2 or 10 μg, Niclosamide 8 or 100 μg) was “slightly but significantly improved”, the HDL-inflammatory index [1, 11] was “only able to achieve this degree of efficacy when co-administered with niclosamide” and the HDL-inflammatory index ([1]; FIG. 37, fractions containing 10 μg L-4F or 10 μg niclosamide in ABCT by stomach tube, six hours) was “not effective”. For the same molecule, the “atherosclerosis (aortic sinus lesion, en face, macrophage lesion area)” value [6] was “not without niclosamide”, the “lesions in old apoE null mice versus Time Zero” value (aortic sinus lesion area) was “neither niclosamide nor L-4F without niclosamide significantly reduced lesions” and the “molecular weight of micelles formed by self-association” value [7] was over 100 kDa. The “protective capacity of HDL to inhibit LDL-induced monocyte chemotactic activity” value [8] was “did not significantly alter”, the “detectability in the circulation” value [5] was “essentially non-detectable” and the “degradation after oral administration” value [9] was “rapidly degraded”.

B1: L-4F (Ac-D-W-F-K-A-F-Y-D-K-V-A-E-K-F-K-E-A-F-NH2, all L amino acids) (peptide)
peptide: Ac-DWFKAFYDKVAEKFKEAF-NH2
notes: It self-associates into micelles; also called L-4F (free base)
B1: binds [10].
